ChEMBL document CHEMBL1201862, “PubChem BioAssay data set” (2004)
pEC50: −log10 of the molar value. Calls of active or inactive are those of the source.

Columns and labels:
[1] = target: T1, Delta-type opioid receptor (Homo sapiens, UniProt P41143); assay: DOR agonists, SAR follow-up, image-based (AID 2370); type: functional
[2] = target: T1, Delta-type opioid receptor; assay: HTS Image-Based Screen for Agonists of the DOR Receptor. [Related pubchem assays (depositor defined):AID1777, AID1786, AID2133]; type: functional
[3] = target: T1, Delta-type opioid receptor; assay: delta opioid receptor blockers – image-based, SAR follow-up (AID 2357); type: functional
[4] = target: T2, Kappa-type opioid receptor (Homo sapiens, UniProt P41145); assay: SAR analysis of small molecule agonists of the kappa opioid receptor via a luminescent beta-arrestin assay. [Related pubchem assays (depositor defined):AID1777, AID1786, AID1966, AID2133, AID2136, AID2348, AID2352, AID2357, AID2359, AID2370, AID2420, AID2478, AID2491, AID2492, AID2493, AID2497, AID2498, AID2500, AID449737, AID488822, AID488842]; type: functional
[5] = target: T2, Kappa-type opioid receptor; type: functional
Mu-type opioid receptor [6] = target: T3, Mu-type opioid receptor (Homo sapiens, UniProt P35372); assay: HTS Image-Based Screen for Agonists of the MOR Receptor. [Related pubchem assays (depositor defined):AID1777, AID1785, AID1786, AID2133]; type: functional
[7] = target: T2, Kappa-type opioid receptor; assay: kappa opioid receptor activation potency – imaging, image-based, SAR follow-up (AID 2359); type: functional
Mu-type opioid receptor [8] = target: T3, Mu-type opioid receptor; assay: mu opioid receptor activators, image-based, SAR follow-up (AID 2352); type: functional
[9] = target: T1, Delta-type opioid receptor; assay: HTS Image-Based Screen for Antagonists of the DOR Receptor. [Related pubchem assays (depositor defined):AID1777, AID1785, AID1786, AID2133]; type: functional
[10] = target: T2, Kappa-type opioid receptor; type: functional; remark: listed apart in the source
[11] = target: T2, Kappa-type opioid receptor; assay: kappa opioid receptor blockers, image-based, SAR follow-up (AID 2348); type: functional
Mu-type opioid receptor [12] = target: T3, Mu-type opioid receptor; assay: mu opioid receptor blockers – image-based, SAR follow-up (AID 2420); type: functional;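 also: compounds added before stimulation of receptor with agonist DAMGO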
[13] = target: Peroxisome proliferator-activated receptor gamma/Nuclear receptor coactivator 1 (Homo sapiens, UniProt P37231); assay: TR-FRET dose response biochemical High Throughput Screening assay for agonists of the steroid receptor coactivator 1 (SRC-1) recruitment by the peroxisome proliferator-activated receptor gamma (PPAR gamma): non-selective agonists. [Related pubchem assays (depositor defined):AID1300, AID1808, AID504735, AID631]; type: protein assay
[14] = target: Peroxisome proliferator-activated receptor gamma/Nuclear receptor coactivator 3 (Homo sapiens, UniProt P37231); assay: TR-FRET dose response biochemical High Throughput Screening assay for agonists of the steroid receptor coactivator 3 (SRC-3) recruitment by the peroxisome proliferator-activated receptor gamma (PPAR gamma): non-selective agonists. [Related pubchem assays: 1301 (Confirmation screen.), 1048 (Primary screen.)]; type: functional
[15] = target: Peroxisome proliferator-activated receptor gamma/Nuclear receptor coactivator 2 (Homo sapiens, UniProt P37231); assay: TR-FRET dose response biochemical High Throughput Screening assay for agonists of the steroid receptor coactivator 2 (SRC-2) recruitment by the peroxisome proliferator-activated receptor gamma (PPAR gamma): non-selective agonists. [Related pubchem assays: 1297, 1032 ]; type: functional
[16] = target: Intestinal-type alkaline phosphatase (Homo sapiens, UniProt P09923); assay: activation of human intestinal alkaline phosphatase – biochemical, dose response (AID 488873); type: functional
[17] = target: T4, Polyadenylate-binding protein 1 (Homo sapiens, UniProt P11940); assay: MLLE domain peptide-binding blockers, IC50 – biochemical, fluorescence polarization, FITC-PAM2 peptide, dose response (AID 602259); type: functional; conditions: read-out: IC50_Mean
[18] = target: T5, Alkaline phosphatase, tissue-nonspecific isozyme (Homo sapiens, UniProt P05186); assay: TNAP enzyme inhibition by screening hits, dose response, selectivity assay for mouse IAP inhibitor project, biochemical, human TNAP, uHTS hits (AID 488906); type: functional
T5 sequence (P05186 whole entry): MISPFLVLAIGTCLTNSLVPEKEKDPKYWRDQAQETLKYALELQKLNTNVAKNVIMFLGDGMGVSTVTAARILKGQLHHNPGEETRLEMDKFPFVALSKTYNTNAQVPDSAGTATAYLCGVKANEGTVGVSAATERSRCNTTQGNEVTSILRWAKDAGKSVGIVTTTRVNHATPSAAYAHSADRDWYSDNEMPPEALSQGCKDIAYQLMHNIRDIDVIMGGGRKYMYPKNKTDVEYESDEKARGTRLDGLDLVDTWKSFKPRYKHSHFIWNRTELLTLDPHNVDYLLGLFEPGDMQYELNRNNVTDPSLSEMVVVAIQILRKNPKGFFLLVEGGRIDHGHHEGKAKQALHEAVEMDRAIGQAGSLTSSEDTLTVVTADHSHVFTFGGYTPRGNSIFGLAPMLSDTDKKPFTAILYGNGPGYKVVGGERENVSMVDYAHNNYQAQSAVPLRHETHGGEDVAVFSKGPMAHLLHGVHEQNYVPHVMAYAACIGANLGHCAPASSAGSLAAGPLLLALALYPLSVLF

[19] = target: Intestinal-type alkaline phosphatase (Mus musculus, UniProt P24822); assay: PubChem AID 488785; type: functional
[20] = target: T4, Polyadenylate-binding protein 1; assay: MLLE binding blockers, Cy5 peptide tracer – biochemical, fluorescence polarization, Cy5-PAM2 peptide, secondary, miRNA deadenylation inhibitor project, dose response (AID 602260); type: functional; conditions: read-out: IC50_Mean
[21] = target: T6, G-protein coupled receptor 55 (Homo sapiens, UniProt Q9Y2T6); assay: inhibition of LPI-stimulated GPR55 beta-arrestin translocation – imaging, U2OS, beta-arrestin-GFP, LPI agonist, primary screen (AID 2013); type: functional;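 also: antagonist potency measured as reduced agonist-driven arrestin aggregation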
Cannabinoid receptor 2 [22] = target: T7, Cannabinoid receptor 2 (Homo sapiens, UniProt P34972); assay: SAR analysis of agonists of the Cannabinoid Receptor 2 using an Image-Based Assay. [Related pubchem assays (depositor defined):AID2013, AID2026]; type: functional
Cannabinoid receptor 1 [23] = target: T8, Cannabinoid receptor 1 (Homo sapiens, UniProt P21554); assay: SAR analysis of antagonists of the Cannabinoid Receptor 1 using an Image-Based Assay - Set 2. [Related pubchem assays (depositor defined):AID2013, AID2026]; type: functional
[24] = target: T9, G-protein coupled receptor 35 (Homo sapiens, UniProt Q9HC97); assay: SAR analysis of Antagonists of the GPR35 Receptor using an Image-Based Assay - Set 3. [Related pubchem assays (depositor defined):AID2013, AID2026]; type: functional
Cannabinoid receptor 1 [25] = target: T8, Cannabinoid receptor 1; assay: SAR analysis of agonists of the Cannabinoid Receptor 1 using an Image-Based Assay - Set 2. [Related pubchem assays (depositor defined):AID2013, AID2026]; type: functional
Cannabinoid receptor 2 [26] = target: T7, Cannabinoid receptor 2; assay: SAR analysis of antagonists of the Cannabinoid Receptor 2 using an Image-Based Assay. [Related pubchem assays (depositor defined):AID2013, AID2026]; type: functional
[27] = target: T9, G-protein coupled receptor 35; assay: SAR analysis of Agonists of the GPR35 Receptor using an Image-Based Assay - Set 2. [Related pubchem assays (depositor defined):AID2013, AID2026]; type: functional
[28] = target: T6, G-protein coupled receptor 55; assay: blockade of LPI-induced GPR55 arrestin translocation – imaging, U2OS, beta-arrestin-GFP, LPI agonist, set 2, SAR follow-up (AID 2820); type: functional
[29] = target: T10, Tyrosine-protein phosphatase non-receptor type 22 (Homo sapiens, UniProt Q9Y2R2); assay: SAR LYP1 Fluorescent Assay using OMFP substrate for In Vitro dose response studies - Set 2. [Related pubchem assays (depositor defined):AID1779, AID1784, AID2140, AID449726, AID488869]; type: functional
T10 sequence (Q9Y2R2 whole entry): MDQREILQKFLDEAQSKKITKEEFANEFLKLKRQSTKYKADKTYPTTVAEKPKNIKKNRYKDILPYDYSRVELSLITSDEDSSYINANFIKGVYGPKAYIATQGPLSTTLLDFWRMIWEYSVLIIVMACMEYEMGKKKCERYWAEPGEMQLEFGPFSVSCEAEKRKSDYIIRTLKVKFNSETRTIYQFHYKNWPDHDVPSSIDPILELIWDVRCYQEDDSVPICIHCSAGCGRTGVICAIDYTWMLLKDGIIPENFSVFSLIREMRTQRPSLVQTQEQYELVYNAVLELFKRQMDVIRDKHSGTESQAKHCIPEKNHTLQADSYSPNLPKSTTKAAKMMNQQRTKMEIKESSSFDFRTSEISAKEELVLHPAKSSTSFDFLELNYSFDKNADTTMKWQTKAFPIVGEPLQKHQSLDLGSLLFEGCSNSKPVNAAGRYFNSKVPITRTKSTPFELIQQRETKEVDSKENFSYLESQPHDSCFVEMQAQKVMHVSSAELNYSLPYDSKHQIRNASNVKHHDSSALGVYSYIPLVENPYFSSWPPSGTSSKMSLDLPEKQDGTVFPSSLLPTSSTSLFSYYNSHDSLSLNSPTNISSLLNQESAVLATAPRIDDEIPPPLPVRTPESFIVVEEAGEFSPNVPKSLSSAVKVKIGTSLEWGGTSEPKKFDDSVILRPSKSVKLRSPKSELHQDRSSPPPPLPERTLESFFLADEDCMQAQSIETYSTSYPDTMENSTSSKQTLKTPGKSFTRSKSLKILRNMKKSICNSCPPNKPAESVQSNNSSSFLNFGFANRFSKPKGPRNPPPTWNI

[30] = target: T10, Tyrosine-protein phosphatase non-receptor type 22; assay: inhibition of lymphoid tyrosine phosphatase LYP – biochemical, pCAP fluorogenic substrate, fluorescence, set 3, SAR follow-up (AID 449727); type: functional
[31] = target: Tyrosine-protein phosphatase non-receptor type 12 (Homo sapiens, UniProt Q05209); assay: SAR Selectivity Analysis of small molecule inhibitors of PEST using pCAP in a fluorescence assay. [Related pubchem assays (depositor defined):AID1779, AID1784, AID2135]; type: functional
[32] = target: T11, Tyrosine-protein phosphatase non-receptor type 7 (Homo sapiens, UniProt P35236); assay: inhibition of hematopoietic tyrosine phosphatase HePTP – biochemical, set 2, SAR follow-up (AID 449736); type: functional
T11 sequence (P35236 whole entry): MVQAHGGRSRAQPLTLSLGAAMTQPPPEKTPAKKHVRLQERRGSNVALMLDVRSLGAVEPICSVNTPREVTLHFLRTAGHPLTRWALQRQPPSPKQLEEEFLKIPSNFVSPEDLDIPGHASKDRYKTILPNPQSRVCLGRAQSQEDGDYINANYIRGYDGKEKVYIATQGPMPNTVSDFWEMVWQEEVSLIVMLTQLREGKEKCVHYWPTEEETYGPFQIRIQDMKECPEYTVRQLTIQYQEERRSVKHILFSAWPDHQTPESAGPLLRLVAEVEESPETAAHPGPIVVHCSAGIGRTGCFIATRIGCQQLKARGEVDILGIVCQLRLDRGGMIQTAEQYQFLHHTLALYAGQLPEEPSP

[33] = target: T10, Tyrosine-protein phosphatase non-receptor type 22; assay: SAR LYP1 Fluorescent Assay using pCAP substrate for In Vitro dose response studies - Set 2. [Related pubchem assays (depositor defined):AID1779, AID1784, AID2135, AID449727]; type: functional
[34] = target: T10, Tyrosine-protein phosphatase non-receptor type 22; assay: SAR LYP1 Fluorescent Assay using OMFP substrate for In Vitro dose response studies - Set 3. [Related pubchem assays (depositor defined):AID1779, AID1784, AID2140, AID2686]; type: functional

T3 sequence (P35372 whole entry): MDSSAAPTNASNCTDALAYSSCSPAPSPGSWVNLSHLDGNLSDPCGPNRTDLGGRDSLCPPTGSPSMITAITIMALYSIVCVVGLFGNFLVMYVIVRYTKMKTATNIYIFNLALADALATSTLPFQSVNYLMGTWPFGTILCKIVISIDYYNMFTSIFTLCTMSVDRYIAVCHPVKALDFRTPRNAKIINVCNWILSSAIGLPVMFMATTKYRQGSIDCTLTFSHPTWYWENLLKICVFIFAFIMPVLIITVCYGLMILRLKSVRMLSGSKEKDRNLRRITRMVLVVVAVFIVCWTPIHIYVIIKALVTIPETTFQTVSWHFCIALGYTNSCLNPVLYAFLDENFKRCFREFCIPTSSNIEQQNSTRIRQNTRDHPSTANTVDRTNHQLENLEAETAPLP
T2 sequence (P41145 whole entry): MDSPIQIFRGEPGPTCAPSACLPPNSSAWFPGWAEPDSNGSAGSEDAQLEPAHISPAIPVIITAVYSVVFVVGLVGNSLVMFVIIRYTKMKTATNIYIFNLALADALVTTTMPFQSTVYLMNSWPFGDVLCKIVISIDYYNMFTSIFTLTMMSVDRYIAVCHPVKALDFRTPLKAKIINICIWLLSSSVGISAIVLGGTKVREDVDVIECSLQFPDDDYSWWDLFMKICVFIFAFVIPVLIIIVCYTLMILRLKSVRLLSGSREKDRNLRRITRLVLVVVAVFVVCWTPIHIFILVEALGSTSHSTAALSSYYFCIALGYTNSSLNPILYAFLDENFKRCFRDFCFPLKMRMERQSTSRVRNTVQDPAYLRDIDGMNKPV
T1 sequence (P41143 whole entry): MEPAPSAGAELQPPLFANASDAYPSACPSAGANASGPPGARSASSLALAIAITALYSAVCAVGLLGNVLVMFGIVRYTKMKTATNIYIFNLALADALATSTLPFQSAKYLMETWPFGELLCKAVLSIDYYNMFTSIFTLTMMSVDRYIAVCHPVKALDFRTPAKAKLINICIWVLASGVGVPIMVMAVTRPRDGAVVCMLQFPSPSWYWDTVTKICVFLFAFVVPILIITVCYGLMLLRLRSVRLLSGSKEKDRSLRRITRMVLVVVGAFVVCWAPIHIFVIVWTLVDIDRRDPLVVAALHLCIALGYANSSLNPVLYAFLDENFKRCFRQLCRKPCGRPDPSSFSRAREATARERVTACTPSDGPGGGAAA
T7 sequence (P34972 whole entry): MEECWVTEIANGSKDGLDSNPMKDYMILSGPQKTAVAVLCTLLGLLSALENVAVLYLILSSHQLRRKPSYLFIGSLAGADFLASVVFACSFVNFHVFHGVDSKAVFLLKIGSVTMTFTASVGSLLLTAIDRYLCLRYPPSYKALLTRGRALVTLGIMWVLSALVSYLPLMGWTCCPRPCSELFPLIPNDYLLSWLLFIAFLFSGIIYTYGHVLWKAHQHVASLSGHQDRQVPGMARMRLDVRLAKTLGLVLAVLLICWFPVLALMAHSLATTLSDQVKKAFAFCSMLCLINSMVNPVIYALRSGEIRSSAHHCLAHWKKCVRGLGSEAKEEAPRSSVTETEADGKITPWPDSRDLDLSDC
T4 sequence (P11940 whole entry, the tested form may be a part): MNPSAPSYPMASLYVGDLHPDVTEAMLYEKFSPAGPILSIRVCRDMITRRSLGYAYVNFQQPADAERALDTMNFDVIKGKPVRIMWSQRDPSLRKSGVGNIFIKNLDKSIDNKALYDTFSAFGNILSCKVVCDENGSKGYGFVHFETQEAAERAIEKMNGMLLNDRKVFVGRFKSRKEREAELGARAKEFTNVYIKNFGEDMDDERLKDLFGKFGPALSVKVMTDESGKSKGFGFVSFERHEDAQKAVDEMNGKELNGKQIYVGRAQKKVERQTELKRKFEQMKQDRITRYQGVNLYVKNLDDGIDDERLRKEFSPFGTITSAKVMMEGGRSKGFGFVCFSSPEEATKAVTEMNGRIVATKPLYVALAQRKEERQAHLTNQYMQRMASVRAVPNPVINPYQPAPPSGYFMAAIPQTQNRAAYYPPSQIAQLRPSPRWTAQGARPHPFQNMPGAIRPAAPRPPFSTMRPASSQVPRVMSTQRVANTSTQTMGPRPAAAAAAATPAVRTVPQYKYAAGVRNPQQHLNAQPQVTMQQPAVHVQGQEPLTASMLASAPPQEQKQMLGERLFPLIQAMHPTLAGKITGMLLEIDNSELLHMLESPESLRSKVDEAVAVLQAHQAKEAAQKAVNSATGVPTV
T9 sequence (Q9HC97 whole entry): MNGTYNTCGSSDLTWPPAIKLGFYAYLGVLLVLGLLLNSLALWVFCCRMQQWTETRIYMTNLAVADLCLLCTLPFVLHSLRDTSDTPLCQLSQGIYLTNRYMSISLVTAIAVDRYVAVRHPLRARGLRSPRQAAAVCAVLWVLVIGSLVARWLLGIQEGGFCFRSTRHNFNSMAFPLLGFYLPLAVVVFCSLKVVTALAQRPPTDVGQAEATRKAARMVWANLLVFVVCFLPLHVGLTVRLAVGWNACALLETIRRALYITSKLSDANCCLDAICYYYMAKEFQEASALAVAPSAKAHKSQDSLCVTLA
T8 sequence (P21554 whole entry): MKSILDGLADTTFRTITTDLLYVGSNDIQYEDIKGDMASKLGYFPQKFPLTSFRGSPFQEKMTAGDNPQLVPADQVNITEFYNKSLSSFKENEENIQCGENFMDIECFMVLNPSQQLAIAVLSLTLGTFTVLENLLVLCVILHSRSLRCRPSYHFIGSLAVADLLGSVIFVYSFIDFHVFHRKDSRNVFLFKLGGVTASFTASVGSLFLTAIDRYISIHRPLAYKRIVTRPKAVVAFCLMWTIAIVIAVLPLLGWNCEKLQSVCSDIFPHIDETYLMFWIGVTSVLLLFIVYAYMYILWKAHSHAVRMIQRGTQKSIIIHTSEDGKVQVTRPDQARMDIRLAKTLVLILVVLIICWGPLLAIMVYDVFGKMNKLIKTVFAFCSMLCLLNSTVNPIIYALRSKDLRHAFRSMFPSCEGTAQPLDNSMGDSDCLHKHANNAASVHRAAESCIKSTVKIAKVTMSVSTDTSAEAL
T6 sequence (Q9Y2T6 whole entry): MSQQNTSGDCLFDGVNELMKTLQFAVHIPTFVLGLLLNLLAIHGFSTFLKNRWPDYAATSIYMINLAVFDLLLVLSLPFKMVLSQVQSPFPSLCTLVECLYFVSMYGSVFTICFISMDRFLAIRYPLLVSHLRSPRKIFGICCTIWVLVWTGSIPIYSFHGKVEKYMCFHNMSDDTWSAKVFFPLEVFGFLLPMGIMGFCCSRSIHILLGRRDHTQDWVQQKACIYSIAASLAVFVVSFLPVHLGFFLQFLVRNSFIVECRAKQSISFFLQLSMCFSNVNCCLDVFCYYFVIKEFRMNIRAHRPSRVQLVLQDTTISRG
Sequence of Tyrosine-protein phosphatase non-receptor type 12 (Q05209 whole entry): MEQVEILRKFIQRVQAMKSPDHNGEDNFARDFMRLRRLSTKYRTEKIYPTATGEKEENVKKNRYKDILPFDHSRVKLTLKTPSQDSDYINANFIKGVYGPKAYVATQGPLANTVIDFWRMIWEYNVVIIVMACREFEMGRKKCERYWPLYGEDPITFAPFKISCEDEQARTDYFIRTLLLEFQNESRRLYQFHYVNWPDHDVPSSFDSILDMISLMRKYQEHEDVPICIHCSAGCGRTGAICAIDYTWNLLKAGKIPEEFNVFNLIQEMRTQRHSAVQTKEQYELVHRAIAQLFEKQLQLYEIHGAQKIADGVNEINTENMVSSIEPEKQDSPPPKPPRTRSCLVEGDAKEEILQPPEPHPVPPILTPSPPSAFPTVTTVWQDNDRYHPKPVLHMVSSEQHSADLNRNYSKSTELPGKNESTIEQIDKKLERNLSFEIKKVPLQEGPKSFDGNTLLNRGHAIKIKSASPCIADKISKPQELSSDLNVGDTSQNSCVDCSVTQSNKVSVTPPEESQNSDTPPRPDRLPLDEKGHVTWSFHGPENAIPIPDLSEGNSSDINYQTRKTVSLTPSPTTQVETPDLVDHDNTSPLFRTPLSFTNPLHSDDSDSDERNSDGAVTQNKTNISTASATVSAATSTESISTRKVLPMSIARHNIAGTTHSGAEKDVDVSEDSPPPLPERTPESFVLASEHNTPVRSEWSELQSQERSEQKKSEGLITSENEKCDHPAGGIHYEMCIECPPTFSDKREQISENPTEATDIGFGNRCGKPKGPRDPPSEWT
Sequence of Intestinal-type alkaline phosphatase (Homo sapiens, UniProt P09923) (P09923 whole entry, the tested form may be a part): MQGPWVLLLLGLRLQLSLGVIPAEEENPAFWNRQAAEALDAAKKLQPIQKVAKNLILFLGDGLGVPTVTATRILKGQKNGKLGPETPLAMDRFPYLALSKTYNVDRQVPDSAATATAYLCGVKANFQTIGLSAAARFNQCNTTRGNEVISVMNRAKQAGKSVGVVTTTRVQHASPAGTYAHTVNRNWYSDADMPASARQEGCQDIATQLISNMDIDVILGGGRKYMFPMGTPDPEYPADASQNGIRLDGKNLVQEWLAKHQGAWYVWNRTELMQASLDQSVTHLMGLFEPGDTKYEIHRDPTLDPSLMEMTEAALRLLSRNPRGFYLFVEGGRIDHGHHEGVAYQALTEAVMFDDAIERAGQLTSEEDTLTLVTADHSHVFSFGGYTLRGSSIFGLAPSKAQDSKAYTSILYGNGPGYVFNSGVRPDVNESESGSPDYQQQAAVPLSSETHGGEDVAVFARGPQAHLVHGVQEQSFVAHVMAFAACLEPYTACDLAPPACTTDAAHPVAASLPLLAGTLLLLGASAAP

Cc1cccc(C)c1NC(=O)C1(N(Cc2ccco2)C(=O)c2ccccn2)CCCC1
EC50 [1]: > 32 µM (inactive)
EC50 [2]: > 32 µM (inactive)
IC50 [3]: > 32 µM (inactive)
EC50 [4]: 4.05 µM (active)
pEC50 [5]: 5.71
EC50 (Mu-type opioid receptor [6]): > 32 µM (inactive)
EC50 [7]: 1.11 µM (active)
EC50 (Mu-type opioid receptor [8]): > 32 µM (inactive)
IC50 [9]: > 32 µM (inactive)
pEC50 [10]: 5.38
IC50 [11]: > 32 µM (inactive)
IC50 (Mu-type opioid receptor [12]): > 32 µM (inactive)

C#CCn1/c(=N/C(=O)c2sc3ccccc3c2Cl)sc2cc(S(N)(=O)=O)ccc21
EC50 [13]: 16.2 µM (inactive)
EC50 [14]: > 79.4 µM (not active)
EC50 [15]: 18.7 µM (not active)

CCOC(=O)CN1C(=O)/C(=C2\SC(=S)N(NC(=O)c3cccnc3)C2=O)c2ccccc21
EC50 [16]: 25.5 µM (active)
IC50 [17]: > 66 µM (inactive)
IC50 [18]: > 100 µM (inactive)
IC50 [19]: 11.2 µM (active)
IC50 [20]: > 66 µM (inactive)

COc1ccc(S(=O)(=O)Nc2ccc(F)cc2)cc1N(C)S(=O)(=O)c1ccc(Cl)cc1
IC50 [21]: 0.908 µM (active)
EC50 (Cannabinoid receptor 2 [22]): > 32 µM (inactive)
IC50 (Cannabinoid receptor 1 [23]): 6.63 µM (active)
IC50 [24]: > 32 µM (inactive)
EC50 (Cannabinoid receptor 1 [25]): > 32 µM (inactive)
IC50 (Cannabinoid receptor 2 [26]): > 32 µM (inactive)
EC50 [27]: > 32 µM (inactive)
IC50 [28]: 0.831 µM (active)

O=C(O)COc1ccc(NC(=O)c2ccco2)cc1
IC50 [29]: > 100 µM (inactive)
IC50 [30]: > 100 µM (inactive)
IC50 [31]: > 100 µM (inactive)
IC50 [32]: > 100 µM (inactive)
IC50 [33]: > 100 µM (inactive)
IC50 [34]: > 100 µM (inactive)
